Data taken from US20030087243A1, “Diagnosis, prognosis and treatment of cancer related to the Barx2 gene” (priority 1999, published 2003).

How the values were obtained:
Format in all cases: cell-based, human
PEO1 = test: 12 day growth inhibition assay with cisplatin, PEO1 with and without Barx2 transfection; conditions: PEO1, across the cisplatin concentration range
Source text: (§1) Transfection of BARX2 into OVCAR3, OAW42, PEO1 and PEO1-CDDP suppresses cell growth. In OAW42, this is accompanied by suppression of matrigel invasion, cell migration and adhesion and partial G1/S-phase block. […] This is consistent with recent thinking for molecular mechanisms of cytotoxicity in clinical cancer, and clonogenic assays are shown in FIG. 35.

[1] = test system: PEO1CDDP transfectant cell lines; test: Clonogenic assay of PEO1CDDP transfectants after cisplatinum exposure; conditions: CB1.3, CB3.6 vs CH1.1, CH2.2; 3 day exposure, 1.0 μM cisplatinum; p<0.0001
Method: FIG. 35. The PEO1CCDP pBABE Hygromycin control transfectant cell lines CH1.1 and CH2.2, and the PEO1CDDP pBABE BARX2 transfectant cell lines CB1.3 and CB3.6, were assayed for survival at day 12 following 3 day exposure to 0 μM, 1.0 μM and 2.0 μM cisplatinum in a clonogenic assay.

[2] = test system: PEO1 cisplatin sensitive and resistant cell lines; test: Annexin-V-FACS apoptosis after cisplatin
Method: Flow-cytometric detection of phosphatidylserine expression in cell lines and MHCs was performed according to the manufacturer's method using the Fluorescein labelled Annexin-V Apoptosis Detection Kit (R&D systems) (Vermes et al, 1995). The measure of early apoptosis derives from the assessment of the proportion of Annexin-V positives Propidium Iodide negative cells.
as §1

PEO4 = test: Cisplatin resistance of PEO4 cell line relative to PEO1; conditions: PEO4, derived after relapse following high dose cisplatin in vivo
Source text: (§2) In FIG. 4, the 5′ end (F1R1) and the 3′ end (F3R3) of the BarX2 transcript are amplified by RT-PCR using the primers given. PEO1, PEO4, PEO6 and PEOCDDP are four cell lines derived from a patient with ovarian cancer. […] Another cell line PEO4 was derived from the same patient when they relapsed again after treatment with high dose cisplatin chemotherapy in vivo. This cell line is approx four-fold resistant relative to PEO1.

PEO1CDDP [3] = test: 12 day growth inhibition assay with cisplatin, PEO1CDDP with and without Barx2 transfection; conditions: across the cisplatin concentration range
PEO1 CDDP cell line = test: Cisplatin resistance of PEO1 CDDP cell line relative to PEO1; conditions: developed by exposing PEO1 to cisplatinum in vitro
Source text: as §2

PEO1CDDP [4] = test: Growth (cell counts) of PEO1CDDP transfectant clones exposed to cisplatinum; conditions: day 13
Method: We tested whether the introduction of Barx2 into PEO1CDDP altered its sensitivity to cisplatinum. 25000 cells were plated. Two days later, varying concentrations of cisplatinum were applied for 3 days, and then removed. Refeeding of the cells was performed every three days until day 13 with cell counts performed every three days.
CH1.1 is a control PEO1CDDP derivative clone that has been transfected with the pBabe Hygro empty vector (the same vector into which BarX2 was cloned) and behave as the parent line. CB3.6 is a BarX2 transfected growth suppressed clone. Both are exposed to increasing concentrations of cisplatinum.
The result of this experiment is seen particularly at the 1 μM cisplatinum concentration. Compared with no cisplatinum, the control cell line grows to 85% control at 1 μM cisplatinum at day 13. At the same timepoint and concentration of platinum, the BarX2 transfected platinum resistant cell line grows to only 69% of control. This increase in platinum sensitivity (or reduction in resistance) upon BarX2 transfection is consistent with the observed aberrant expression of the 5′ BarX2 transcript noted by RT-PCR in the PEO series of cell lines. Whether BarX2 induces sensitivity, reduces resistance, or both is not understood and the underlying mechanism is currently being explored.

Barx2 = test: Azacytidine demethylation, Barx2 re-expression in OAW42; conditions: OAW42, 96 hours, 0.5 μM azacytidine
Method: OAW42 was exposed to 5-azacytidine for 96 hours at different concentrations. […] Feint expression is seen for barx2 in OAW42 control, but strong induction of barx2 expression is seen at 0.5 μM azacytidine relative to actin signal.
OAW42 was exposed to 5-azacytidine for 96 hours at different concentrations.

| SMILES | change of sensitivity to cisplatin as a result of Barx2 transfection (PEO1) | increase in platinum sensitivity following BARX2 transfection (survival at day 12) [1] | apoptosis, sensitive versus resistant cell lines ([2]; 1.5 or 5 micromolar cisplatin, between 1 hr and 40 hr) | apoptosis in response to cisplatin in BARX2 transfected cells ([2]; BARX2 transfected PEO1 and PEO1-CDDP) | resistance relative to PEO1 (PEO4) | increase of platinum sensitivity by Barx2 transfection (PEO1CDDP [3]) | resistance to cisplatin relative to PEO1 (PEO1 CDDP cell line) [fold] | growth compared with no cisplatinum (PEO1CDDP [4]; BarX2 transfected clone CB3.6, 1 μM cisplatinum for 3 days) [%] | growth compared with no cisplatinum (PEO1CDDP [4]; control clone CH1.1 (pBabe Hygro empty vector), 1 μM cisplatinum for 3 days) [%] | induction of Barx2 expression (Barx2) |
| --- | --- | --- | --- | --- | --- | --- | --- | --- | --- | --- |
| N.N.[Cl][Pt][Cl] [cisplatin] | not significantly altered | statistically significant | no significant differences | no increase in apoptosis | approx four | six | 18 | 69 | 85 |  |
| Nc1ncn([C@@H]2O[C@H](CO)[C@@H](O)[C@H]2O)c(=O)n1 [5-azacytidine] |  |  |  |  |  |  |  |  |  | Clear induction |
